According to patent publication US8524688B2, “Use of sulfated glycosaminoglycans for establishing effective labor in women” (Dilafor AB, priority 2002, dated 2013):

Tests used:
cervical fibroblasts = test: Effect on Ca2+ levels in cervical fibroblasts (Fluo-4 fluorescence); format: cell-based, human; conditions: cultures from non-pregnant and term pregnant patients
Description: Fibroblast cultures were established from non-pregnant, and term pregnant patients and from women delivered vaginally (after partus patients). The cells were cultured in monolayer cultures with minimum essential medium with 10% donor calf serum. For experiments these cells were plated on cover glasses with at semi-confluence and loaded with Fluo-4 in phosphate buffered saline containing 10 mM HEPES for 30 min. Initially phosphate buffered saline containing 10 mM HEPES (HEPES-buffer) was pumped into the observation chamber for 30 s, then KCl in the same buffer was pumped for 60 s followed by HEPES-buffer for 30 s. Then 10 ng of PDGF/ml in HEPES-buffer was added. The fluorescence was monitored continuously for 3 min. In other experiments PDGF was replaced with 100 μg of HS6. […] This effect is postulated to be of importance at partus for final preparation of cervix for delivery.

[1] = tested on: human uterine strips (myometrial strip); test: Contractile assay on uterine strips in organ bath; conditions: 1 U oxytocin only
Description: In the following test heparan sulfate HS2 and HS6 obtained from the heparin side fraction TB 001-91 SVCM 950130 (Kabi-Pharmacia, Sweden) were tested. HS6 differs from HS2 by being more highly sulfated and having more L-iduronic acid residues (see Table 1 above).
Uterine samples were obtained from women undergoing elective caesarian section at 38-39 weeks of gestation. The samples measured 20×10×10 mm and were taken from the upper part of the isthmic incision. The biopsy was immediately placed in ice-cold Krebs-Ringer buffer. The biopsies were cut into longitudinal strips, length 10-15 mm and breadth about 5 mm. The strip was mounted vertically in an organ bath of 37° C. containing 2 ml Krebs-Ringer solution. The solution was bubbled with a mixture of 95% O2 and 5% CO2 in order to maintain a pH in the bath of 7.35-7.45. Experiments were carried out after the strips had equilibrated to a stable contractile state, usually within 1-2 h after mounting. The contractions were recorded isometrically with a Grass model 7 polygraph (Grass Instr. Co., Quincy, Mass., USA). All samples were exposed to 100 mM KCl during the experiment in order to get a standardized maximum response. […]
This procedure was repeated using 6 μg of heparan sulfate. […] The contractions were recorded and evaluated by integrating the surface under the curve. […]

Row | Compound | Change of fluorescence (intracellular Ca2+) (cervical fibroblasts) | Relative contractility of myometrial strip, oxytocin control [1]
1 | PDGF | No change of fluorescence | –
2 | [Cl-].[K+] [KCl] | No change of fluorescence | –
3 | CC[C@H](C)[C@@H]1NC(=O)[C@H](Cc2ccc(O)cc2)NC(=O)[C@@H](N)CSSC[C@@H](C(=O)N2CCC[C@H]2C(=O)N[C@@H](CC(C)C)C(=O)NCC(N)=O)NC(=O)[C@H](CC(N)=O)NC(=O)[C@H](CCC(N)=O)NC1=O [Oxytocin, oxytocin] | – | 226 % of unstimulated control
